Source: the NIST ThermoML archive (doi:10.1021/je2012633)
± gives the expanded uncertainty stated by the source.

Columns and labels:
[1] = xn = mol fraction of the nth substance listed; conditions: 101 kPa, Liquid, Vibrating tube method
[2] = 101 kPa, Liquid, Vibrating tube method

CCCCCCOS(=O)(=O)[O-].CC[n+]1ccn(C)c1 [3-ethyl-1-methyl-1H-imidazolium hexyl sulfate] + CCO
mass density [kg/m3], [1]
Conditions | x1 = 0.0977 | x1 = 0.2202 | x1 = 0.3246 | x1 = 0.4377 | x1 = 0.4947 | x1 = 0.6214 | x1 = 0.7252 | x1 = 0.7455 | x1 = 0.9063 | x1 = 1
288.15 K | 911.2 ± 1 | 990 ± 1 | 1031.7 ± 1 | 1063.2 ± 1.1 | 1075.5 ± 1.1 | 1097.3 ± 1.1 | 1110.9 ± 1.2 | 1113.2 ± 1.2 | 1128.5 ± 1.3 | 1136.6 ± 1.4
298.15 K | 903.4 ± 1 | 982.4 ± 1 | 1024.3 ± 1 | 1056 ± 1.1 | 1068.4 ± 1.1 | 1090.4 ± 1.1 | 1104.1 ± 1.2 | 1106.4 ± 1.2 | 1121.8 ± 1.3 | 1129.6 ± 1.4
308.15 K | 895.3 ± 1 | 974.9 ± 1 | 1017.1 ± 1 | 1048.9 ± 1.1 | 1061.4 ± 1.1 | 1083.5 ± 1.1 | 1097.4 ± 1.2 | 1099.7 ± 1.2 | 1115.2 ± 1.3 | 1123.1 ± 1.4
318.15 K | 887.4 ± 1 | 967.4 ± 1 | 1009.8 ± 1 | 1042 ± 1.1 | 1054.4 ± 1.1 | 1076.8 ± 1.1 | 1090.7 ± 1.2 | 1093 ± 1.2 | 1108.8 ± 1.3 | 1116.6 ± 1.4

CCCCCCOS(=O)(=O)[O-].CC[n+]1ccn(C)c1 [3-ethyl-1-methyl-1H-imidazolium hexyl sulfate] + O
mass density [kg/m3], [1]
Conditions | x1 = 0.0501 | x1 = 0.0965 | x1 = 0.2075 | x1 = 0.3982 | x1 = 0.582 | x1 = 0.7243 | x1 = 0.7976 | x1 = 0.9346 | x1 = 1
288.15 K | 1061.4 ± 1 | 1086.5 ± 1 | 1111.4 ± 1 | 1125.8 ± 1 | 1131.2 ± 1.1 | 1133.5 ± 1.2 | 1134.5 ± 1.2 | 1135.8 ± 1.3 | 1136.6 ± 1.4
298.15 K | 1056 ± 1 | 1080.2 ± 1 | 1104.8 ± 1 | 1119 ± 1 | 1124.5 ± 1.1 | 1126.8 ± 1.1 | 1127.7 ± 1.2 | 1129 ± 1.3 | 1129.6 ± 1.4
308.15 K | 1050.2 ± 1 | 1073.7 ± 1 | 1097.8 ± 1 | 1112.2 ± 1 | 1117.8 ± 1.1 | 1120.3 ± 1.1 | 1121.2 ± 1.2 | 1122.3 ± 1.3 | 1123.1 ± 1.4
318.15 K | 1044.1 ± 1 | 1066.9 ± 1 | 1090.8 ± 1 | 1105.4 ± 1 | 1111.2 ± 1.1 | 1113.8 ± 1.1 | 1114.7 ± 1.2 | 1115.8 ± 1.3 | 1116.6 ± 1.4

CCCCOS(=O)(=O)[O-].CC[n+]1ccn(C)c1 [3-ethyl-1-methylimidazolium butyl sulfate]
[2]
Conditions | mass density [kg/m3]
288.15 K | 1182.5 ± 1.1
298.15 K | 1175.7 ± 1.1
308.15 K | 1169 ± 1.1
318.15 K | 1162.4 ± 1.1
